From patent publication US20250179061A1 (SIRONAX LTD., priority 2022, published 2025)

system: HT-29 cells; assay: HT-29 necroptosis cell viability assay (TNF-α/SMAC mimetic/zVAD-FMK, CellTiter-Glo); assay type: cell-based; settings: Homo sapiens, HT-29, HT-29 necroptosis cell viability, IC50 class symbols; read-out: Activity
Summary of the method: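 Necroptosis was triggered by TNF-α (10 ng/ml), SMAC mimetic (6 μM) and zVAD-FMK (10 μM) in serum-free medium during 20 h compound exposure (10 concentrations, threefold steps) of HT-29 cells. IC50 from duplicate dose-responses uses CellTiter-Glo ATP luminescence as viability read-out.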

Compound | IC50
COC1(C#N)CN(c2cc(Oc3ccc(-n4ncn(Cc5c(F)cccc5F)c4=O)cc3)c(Cl)cn2)C1 [Example 319, 1-(5-chloro-4-(4-(4-(2,6-difluorobenzyl)-5-oxo-4,5-dihydro-1H-1,2,4-triazol-1-yl)phenoxy)pyridin-2-yl)-3-methoxyazetidine-3-carbonitrile] | < 100 nM
COC1(C#N)CN(c2cc(Oc3ccc(-n4ncn(Cc5c(F)cccc5F)c4=O)cc3)c(C)cn2)C1 [Example 320, 1-(4-(4-(4-(2,6-difluorobenzyl)-5-oxo-4,5-dihydro-1H-1,2,4-triazol-1-yl)phenoxy)-5-methylpyridin-2-yl)-3-methoxyazetidine-3-carbonitrile] | < 100 nM
CC1(N)CN(c2nccc(Oc3ccc(-n4ncn(Cc5c(F)cccc5F)c4=O)cc3)c2F)C1 [Example 321, 2-(4-((2-(3-amino-3-methylazetidin-1-yl)-3-fluoropyridin-4-yl)oxy)phenyl)-4-(2,6-difluorobenzyl)-2,4-dihydro-3H-1,2,4-triazol-3-one] | < 100 nM
NC1CN(c2cc(Oc3ccc(-n4ncn(Cc5c(F)cccc5F)c4=O)cc3)ccn2)C1 [Example 322, 2-(4-((2-(3-aminoazetidin-1-yl)pyridin-4-yl)oxy)phenyl)-4-(2,6-difluorobenzyl)-2,4-dihydro-3H-1,2,4-triazol-3-one] | 100 to 1000 nM
CC1(C#N)CN(c2cc(Oc3ccc(-n4ncn(Cc5c(F)cccc5F)c4=O)cc3)c(F)cn2)C1 [Example 323, 1-(4-(4-(4-(2,6-difluorobenzyl)-5-oxo-4,5-dihydro-1H-1,2,4-triazol-1-yl)phenoxy)-5-fluoropyridin-2-yl)-3-methylazetidine-3-carbonitrile] | 100 to 1000 nM
CCOC1CN(c2cc(Oc3ccc(-n4ncn(Cc5c(F)cccc5F)c4=O)cc3)c(F)cn2)C1 [Example 324, 4-(2,6-difluorobenzyl)-2-(4-((2-(3-ethoxyazetidin-1-yl)-5-fluoropyridin-4-yl)oxy)phenyl)-2,4-dihydro-3H-1,2,4-triazol-3-one] | < 100 nM
N#CC12CC(Nc3cc(Oc4ccc(-n5ncn(Cc6c(F)cccc6F)c5=O)cc4)c(Cl)cn3)(C1)C2 [Example 325, 3-((5-chloro-4-(4-(4-(2,6-difluorobenzyl)-5-oxo-4,5-dihydro-1H-1,2,4-triazol-1-yl)phenoxy)pyridin-2-yl)amino)bicyclo[1.1.1]pentane-1-carbonitrile] | < 100 nM
CCOC1CN(c2cc(Oc3ccc(-n4ncn(Cc5c(F)cccc5F)c4=O)cc3)c(Cl)cn2)C1 [Example 326, 2-(4-((5-chloro-2-(3-ethoxyazetidin-1-yl)pyridin-4-yl)oxy)phenyl)-4-(2,6-difluorobenzyl)-2,4-dihydro-3H-1,2,4-triazol-3-one] | < 100 nM
CC(C)(C)OC(=O)NC1CN(c2cc(Oc3ccc(-n4ncn(Cc5c(F)cccc5F)c4=O)cc3)ccn2)C1 [Example 327, tert-butyl (1-(4-(4-(4-(2,6-difluorobenzyl)-5-oxo-4,5-dihydro-1H-1,2,4-triazol-1-yl)phenoxy)pyridin-2-yl)azetidin-3-yl)carbamate] | < 100 nM
O=c1n(Cc2c(F)cccc2F)cnn1-c1ccc(Oc2ccnc(NC3CC(F)(F)C3)c2)cc1 [Example 328, 4-(2,6-difluorobenzyl)-2-(4-((2-((3,3-difluorocyclobutyl)amino)pyridin-4-yl)oxy)phenyl)-2,4-dihydro-3H-1,2,4-triazol-3-one] | 100 to 1000 nM
CC1(O)CN(c2cc(Oc3ccc(-n4ncn(Cc5c(F)cccc5F)c4=O)cc3)ccn2)C1 [Example 329, 4-(2,6-difluorobenzyl)-2-(4-((2-(3-hydroxy-3-methylazetidin-1-yl)pyridin-4-yl)oxy)phenyl)-2,4-dihydro-3H-1,2,4-triazol-3-one] | < 100 nM
O=c1n(Cc2c(F)cccc2F)cnn1-c1ccc(Oc2ccnc(N3CCC4(CCOC4)C3)c2)cc1 (stereo not drawn) [Example 330, 2-(4-((2-(2-oxa-7-azaspiro[4.4]nonan-7-yl)pyridin-4-yl)oxy)phenyl)-4-(2,6-difluorobenzyl)-2,4-dihydro-3H-1,2,4-triazol-3-one] | < 100 nM
